{"source": "patent US7910560B2", "about": "“Method for increasing breast meat yield in poultry” (Arkion Life Sciences LLC, priority 2003, dated 2011)", "key": {"[1]": {"system": "commercial broilers", "assay": "Natamycin in feeds formulated for growing large broilers (Example 2)", "assay_type": "in vivo, Gallus domesticus", "excerpt": "(§1) Mixed feed was stored in 50 lb capacity feed sacks. Feed was stored by treatment and treatment diets were further identified with color-codes. After each diet had been mixed, three composite samples (approximately 1 lb each) were collected. The amount of feed mixed for each treatment was as follows: [table] Normal, healthy day-old chicks were obtained from a commercial hatchery. Birds were transported from the hatchery location to Denver, Colo. via commercial air freight. Ground transportation was used to transport chicks from Denver to Wellington, Colo. The study started with 1400 commercial broilers of the species Gallus domesticus. Treatments were assigned to pens using randomized block design. The research facility was divided into 10 blocks of 2 pens each. Birds were assigned randomly according to CQR SOPs. Feed was provided ad libitum throughout the study via two hanging 17-inch diameter tube feeders per pen. A chick feeder tray was also placed in each pen for approximately the first 6 days. All birds were placed on their respective treatment diets upon receipt (approx. 0 days of age). All feed added and removed from pens was weighed and recorded. All experimental diet changes were conducted at the same time for both treatment groups."}, "[2]": {"conditions": "cited from earlier work"}, "[3]": {"system": "commercial broilers", "assay": "Natamycin in feeds formulated for portion-control processed broilers (Example 1)", "assay_type": "in vivo, Gallus domesticus", "excerpt": "as §1, with “1200” for “1400”, “domesticus, the birds being placed into pens (30 male/30 female per pen).” for “domesticus.”, “SOPs. [table]” for “SOPs.”"}, "[4]": {"system": "commercial broilers", "assay": "Natamycin feed additive in diets manufactured using a gap extender (Example 3)", "assay_type": "in vivo, Gallus domesticus", "excerpt": "as §1, with “The natamycin test article” for “Mixed feed”, “mixed into the treatment” for “stored in 50 lb capacity feed sacks. Feed was stored”, “the ConAgra Poultry Company. Once” for “treatment and treatment diets were further identified with color-codes. After”, “1140” for “1400”, “SOPs. [table]” for “SOPs.”"}, "[5]": {"conditions": "49 days, 1 lbs/ton natamycin in feed ad libitum"}}, "note": "Marks after values point to notes of the source that are not given here.", "data": [{"smiles": "C[C@@H]1C/C=C/C=C/C=C/C=C/[C@H](O[C@@H]2O[C@H](C)[C@@H](O)[C@H](N)[C@@H]2O)C[C@@H]2O[C@](O)(C[C@@H](O)C[C@H]3O[C@@H]3/C=C/C(=O)O1)C[C@H](O)[C@H]2C(=O)O", "note": "[Natamycin, natamycin]", "values": [{"measurement": "Breast Weight, Treatment Total", "setting": "[1]; 61 days, 1 lbs/ton natamycin in feed ad libitum, 230 birds printed", "value": 141.840}, {"measurement": "% Breast, Treatment Average", "setting": "[1]; 61 days, 1 lbs/ton natamycin in feed ad libitum, statistically extremely significant", "value": "21.72** %"}, {"measurement": "Breast Weight, Treatment Average", "setting": "[1]; 61 days, 1 lbs/ton natamycin in feed ad libitum, statistics not calculated", "value": 0.505}, {"measurement": "Breast weight and breast yield versus control", "setting": "[1]; over a 61 day period, breast yield increase statistically significant", "value": "increased breast weight and breast yield"}, {"measurement": "Solubility in water", "setting": "[2]", "value": "0.005-0.010 weight/weight percent"}, {"measurement": "Breast Weight, Treatment Total", "setting": "[3]; 43 days, 1 lbs/ton natamycin in feed ad libitum, 230 birds", "value": 77.485}, {"measurement": "% Breast, Treatment Average", "setting": "[3]; 43 days, 1 lbs/ton natamycin in feed ad libitum, statistically extremely significant", "value": "22.83** %"}, {"measurement": "Breast Weight, Treatment Average", "setting": "[3]; 43 days, 1 lbs/ton natamycin in feed ad libitum, statistically very significant", "value": "0.337*"}, {"measurement": "Breast weight and breast yield versus control", "setting": "[3]; over a 43 day period, statistically significant", "value": "increased breast weight and breast yield"}, {"measurement": "Breast Weight, Bird Average", "setting": "[4]; [5]", "value": 0.465}, {"measurement": "Breast Weight, Pen Average", "setting": "[4]; [5]", "value": 8.315}, {"measurement": "% Breast, Pen Average", "setting": "[4]; 49 days, 1 lbs/ton natamycin in feed ad libitum, statistically significant", "value": "23.31* %"}, {"measurement": "Breast weight and breast yield versus control", "setting": "[4]; over a 49 day period, breast yield increase statistically significant", "value": "increased breast weight and breast yield"}]}]}
